This passage reports IC50 results from patent US20230416205A1, “COMPOUNDS, COMPOSITIONS, AND METHODS” (Denali Therapeutics Inc, priority 2020, published 2023).

SMILES strings stand for the structures. Like-named read-outs stand apart in the source and are kept apart here.

The assay relates to NLRP3. Description: IL-1β secretion assay in PMA-differentiated, LPS/nigericin-stimulated THP-1 cells (384-well, ELISA read-out). The format is cell-based, human. The method, boiled down:
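THP-1 cells differentiated with PMA (5 ng/mL, 40 h), primed in serum-free medium with 25 ng/mL LPS for 2 h, treated with compounds 1 h (0.5% DMSO), then stimulated with nigericin for 2 h at 37 °C. Supernatant IL-1β measured by ELISA; responses normalized to LPS+5 μM nigericin and LPS-only controls.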

The mark [1] stands for this setting: Homo sapiens, THP-1, IL-1β secretion, PMA-differentiated THP-1 cells, LPS then nigericin stimulation, ELISA read at 450 nm, read-out: Activity.
Setting [2] is: Homo sapiens, THP-1, Table 4, IL-1β secretion, LPS/nigericin-stimulated THP-1 cells, read-out: IC50.

`CC1CC12CN(CC(=O)Nc1ncccn1)C(=O)c1ccc(C(F)(F)F)cc12` (stereo not shown) [Example 29, 2-[2′-methyl-1-oxo-6-(trifluoromethyl)spiro[3H-isoquinoline-4,1′-cyclopropane]-2-yl]-N-pyrimidin-2-yl-acetamide]: the IC50 reads like this: under setting [1], under 10 µM; under setting [2], 0.392 µM.
The like results for `CCC1(C)CN(CC(=O)Nc2ncccn2)C(=O)c2ccc(C(F)(F)F)cc21` (stereo not shown) [Example 30, 2-[4-ethyl-4-methyl-1-oxo-6-(trifluoromethyl)-3H-isoquinolin-2-yl]-N-pyrimidin-2-ylacetamide] were, in that order, over 15 µM and 15.1 µM.
The like results for `O=C(CN1CC2(CC2)c2nc(C(F)(F)F)ccc2C1=O)Nc1ncccn1` [Example 31, 2-[5-oxo-2-(trifluoromethyl)spiro[7H-1,6-naphthyridine-8,1′-cyclopropane]-6-yl]-N-pyrimidin-2-ylacetamide] were, in that order, under 10 µM and 2.41 µM.
`O=C(CN1CC2(CCC2)c2cc(Br)ccc2C1=O)Nc1ncccn1` [Example 32, 2-(6-bromo-1-oxo-spiro[3H-isoquinoline-4,1′-cyclobutane]-2-yl)-N-pyrimidin-2-yl-acetamide]: the IC50 is under 10 µM under setting [1] and 1.95 µM under setting [2].
On the same counts, the results for `O=C(CN1CC2(CC2)c2cc(OC(F)F)ccc2C1=O)Nc1ncccn1` [Example 33, N-(pyrimidin-2-yl)-2-[6-(difluoromethoxy)-1-oxospiro[3H-isoquinoline-4,1′-cyclopropane]-2-yl]acetamide] are under 10 µM and 1.28 µM.
On the same counts, the results for `O=C(CN1CC2(CC2)c2cc(C3CC3)ccc2C1=O)Nc1ncc(Cl)cn1` [Example 34, N-(5-chloropyrimidin-2-yl)-2-(6-cyclopropyl-1-oxo-spiro[3H-isoquinoline-4,1′-cyclopropane]-2-yl)acetamide] are under 10 µM and 0.137 µM.
On the same counts, the results for `O=C(CN1CC2(CC2)c2c(ccc(C(F)(F)F)c2F)C1=O)Nc1ncc(F)cn1` [Example 35, 2-[5-fluoro-1-oxo-6-(trifluoromethyl)spiro[3H-isoquinoline-4,1′-cyclopropane]-2-yl]-N-(5-fluoropyrimidin-2-yl)acetamide] are under 10 µM and 0.366 µM.
Consider `O=C(CN1CC2(CC2)c2cc(Br)ccc2C1=O)Nc1ccc(OC(F)F)cn1` [Example 36, 2-(6-bromo-1-oxo-spiro[3H-isoquinoline-4,1′-cyclopropane]-2-yl)-N-[5-(difluoromethoxy)-2-pyridyl]acetamide], for which the IC50 under setting [1] is under 10 µM and the IC50 under setting [2] worked out at 2.72 µM.
On the same counts, the results for `O=Cc1cnc(NC(=O)CN2CC3(CC3)c3cc(Br)ccc3C2=O)c(F)c1` [Example 37, 2-(6-bromo-1-oxo-spiro[3H-isoquinoline-4,1′-cyclopropane]-2-yl)-N-(3-fluoro-5-formyl-2-pyridyl)acetamide] are under 10 µM and 1.32 µM.
As for `O=C(CN1CC2(CC2)c2cc(Br)ccc2C1=O)Nc1ncc(F)cc1F` [Example 38, 2-(6-bromo-1-oxo-spiro[3H-isoquinoline-4,1′-cyclopropane]-2-yl)-N-(3,5-difluoro-2-pyridyl)acetamide], the IC50 (IL-1β secretion, PMA-differentiated THP-1 cells, LPS then nigericin stimulation, ELISA read at 450 nm, read-out: Activity) is under 10 µM and the IC50 (Table 4, IL-1β secretion, LPS/nigericin-stimulated THP-1 cells, read-out: IC50) is 0.449 µM.
In the case of `O=C(CN1CC2(CC2)c2c(ccc(Br)c2F)C1=O)Nc1ncccn1` [Example 39, 2-(6-bromo-5-fluoro-1-oxo-spiro[3H-isoquinoline-4,1′-cyclopropane]-2-yl)-N-(pyrimidin-2-yl)acetamide], the IC50 runs as follows: under setting [1], under 10 µM; under setting [2], 0.09 µM.
The like results for `O=C(CN1CC2(CC2)c2c(F)cccc2C1=O)Nc1ncccn1` [Example 40, 2-(5-fluoro-1-oxo-spiro[3H-isoquinoline-4,1′-cyclopropane]-2-yl)-N-(pyrimidin-2-yl)acetamide] were, in that order, under 10 µM and 8.78 µM.
The like results for `O=C(CN1CC2(CC2)c2c(ccc(Br)c2F)C1=O)Nc1ncc(F)cn1` [Example 41, 2-(6-bromo-5-fluoro-1-oxo-spiro[3H-isoquinoline-4,1′-cyclopropane]-2-yl)-N-(5-fluoropyrimidin-2-yl)acetamide] were, in that order, under 10 µM and 0.068 µM.
The like results for `O=C(CN1CC2(CC2)c2c(F)cccc2C1=O)Nc1ncc(F)cn1` [Example 42, 2-(5-fluoro-1-oxo-spiro[3H-isoquinoline-4,1′-cyclopropane]-2-yl)-N-(5-fluoropyrimidin-2-yl)acetamide] were, in that order, under 10 µM and 5.24 µM.
Regarding `O=C(CN1CC2(CC2)c2cc(Br)ccc2C1=O)Nc1ccc2cn[nH]c2c1` [Example 43, 2-(6-bromo-1-oxo-spiro[3H-isoquinoline-4,1′-cyclopropane]-2-yl)-N-(1H-indazol-6-yl)acetamide], the IC50 under setting [1] is under 10 µM and the IC50 under setting [2] is 0.368 µM.
`O=C(CN1CC2(CC2)c2cc(Br)ccc2C1=O)Nc1ccc2cc[nH]c2c1` [Example 44, 2-(6-bromo-1-oxospiro[3H-isoquinoline-4,1′-cyclopropane]-2-yl)-N-(1H-indol-6-yl)acetamide]: the IC50 is, setting by setting: under setting [1], under 10 µM; under setting [2], 1.26 µM.
For `O=C(CN1CC2(CC2)c2cc(Br)ccc2C1=O)NC1CCc2cn[nH]c2C1` (stereo not shown) [Example 45, 2-(6-bromo-1-oxospiro[3H-isoquinoline-4,1′-cyclopropane]-2-yl)-N-(4,5,6,7-tetrahydro-1H-indazol-6-yl)acetamide], the IC50 runs as follows: under setting [1], under 10 µM; under setting [2], 6.25 µM.
Take `CC1(C)CN(CC(=O)N[C@H]2C[C@@](C)(O)C2)C(=O)c2ccc(Br)cc21` [Example 46, 2-(6-bromo-4,4-dimethyl-1-oxo-3H-isoquinolin-2-yl)-N-(cis-3-hydroxy-3-methyl-cyclobutyl)acetamide]: the IC50 runs as follows: under setting [1], under 10 µM; under setting [2], 1.54 µM.
On to `CC(C)(O)CCNC(=O)CN1CC2(CC2)c2cc(Br)ccc2C1=O` [Example 47, 2-(6-bromo-1-oxospiro[3H-isoquinoline-4,1′-cyclopropane]-2-yl)-N-(3-hydroxy-3-methylbutyl)acetamide], for which the IC50 reads like this: under setting [1], under 10 µM; under setting [2], 4.7 µM.
The like results for `O=C(CN1CC2(CC2)c2cc(Br)ccc2C1=O)Nc1ncc(-n2cccn2)cn1` [Example 48, 2-(6-bromo-1-oxospiro[3H-isoquinoline-4,1′-cyclopropane]-2-yl)-N-(5-pyrazol-1-ylpyrimidin-2-yl)acetamide] were, in that order, under 10 µM and 0.238 µM.
Regarding `CC(C)(O)C12CC(NC(=O)CN3CC4(CC4)c4cc(Br)ccc4C3=O)(C1)C2` [Example 49, 2-(6-bromo-1-oxo-spiro[3H-isoquinoline-4,1′-cyclopropane]-2-yl)-N-[3-(1-hydroxy-1-methyl-ethyl)-1-bicyclo[1.1.1]pentanyl]acetamide], the IC50 under setting [1] is under 10 µM and the IC50 under setting [2] is 3.01 µM.
Turning to `CC(C)(O)C1CC(NC(=O)CN2CC3(CC3)c3cc(Br)ccc3C2=O)C1` (stereo not shown) [Example 50, 2-(6-bromo-1-oxospiro[3H-isoquinoline-4,1′-cyclopropane]-2-yl)-N-[3-(2-hydroxypropan-2-yl)cyclobutyl]acetamide], the IC50 under setting [1] was under 10 µM and the IC50 under setting [2] was 6.44 µM.
For the compound `O=C(CN1CC2(CC2)c2cc(Br)ccc2C1=O)NC12CCC(CC1)OC2` [Example 51, 2-(6-bromo-1-oxo-spiro[3H-isoquinoline-4,1′-cyclopropane]-2-yl)-N-(2-oxabicyclo[2.2.2]octan-4-yl)acetamide], the IC50 runs as follows: under setting [1], 10 to 15 µM; under setting [2], 9.07 µM.
On the same counts, the results for `CC1CC(NC(=O)CN2CC3(CC3)c3cc(Br)ccc3C2=O)C1` (stereo not shown) [Example 52, 2-(6-bromo-1-oxo-spiro[3H-isoquinoline-4,1′-cyclopropane]-2-yl)-N-(3-methylcyclobutyl)acetamide] are under 10 µM and 2.08 µM.
On the same counts, the results for `CC12CC(NC(=O)CN3CC4(CC4)c4cc(Br)ccc4C3=O)(CO1)C2` [Example 53, 2-(6-bromo-1-oxo-spiro[3H-isoquinoline-4,1′-cyclopropane]-2-yl)-N-(1-methyl-2-oxabicyclo[2.1.1]hexan-4-yl)acetamide] are under 10 µM and 7.83 µM.
On to `O=C(CN1CC2(CC2)c2cc(Br)ccc2C1=O)N[C@H]1C[C@H](C(F)(F)F)C1` [Example 54, 2-(6-bromo-1-oxo-spiro[3H-isoquinoline-4,1′-cyclopropane]-2-yl)-N-[trans-3-(trifluoromethyl)cyclobutyl]acetamide], for which the IC50 runs as follows: under setting [1], under 10 µM; under setting [2], 1.55 µM.
The like results for `O=C(CN1CC2(CC2)c2cc(Br)ccc2C1=O)NC1CC(O)(C(F)(F)F)C1` (stereo not drawn) [Example 55, 2-(6-bromo-1-oxo-spiro[3H-isoquinoline-4,1′-cyclopropane]-2-yl)-N-[cis-3-hydroxy-3-(trifluoromethyl)cyclobutyl]acetamide] were, in that order, under 10 µM and 0.861 µM.
The like results for `O=C(CN1CC2(CC2)c2cc(Br)ccc2C1=O)NC12CCC(CC1)CC2` [Example 56, N-(1-bicyclo[2.2.2]octanyl)-2-(6-bromo-1-oxo-spiro[3H-isoquinoline-4,1′-cyclopropane]-2-yl)acetamide] were, in that order, under 10 µM and 7.92 µM.
On the same counts, the results for `O=C(CN1CC2(CC2)c2cc(Br)ccc2C1=O)NC12CCC(O)(CC1)CC2` [Example 57, 2-(6-bromo-1-oxo-spiro[3H-isoquinoline-4,1′-cyclopropane]-2-yl)-N-(4-hydroxy-1-bicyclo[2.2.2]octanyl)acetamide] are under 10 µM and 5.92 µM.
